# Data as given in patent US20070269451A1, “Nucleic Acid Vaccination” (priority 1999, published 2007).
# “Also recorded” adds a separate entry of the source.
# Tested on: anti-MUC1 antibody SM3
# Assay: ELISA binding of anti-MUC1 antibody SM3 to synthetic MUC1 VNTR peptides
# Parameters: key to ELISA signal, Antibody SM3: +++ indicates strong binding; ++ indicates fair binding; + indicates weak binding; − indicates no significant binding
# Settings: Table 2
# Text: (§1) Synthetic peptides were designed containing mutations at the glycosylation sites. Particular attention was focused on substitutions at the threonine residue in this sequence (T11). Table 1 below indicates the peptides that were designed and their mutated glycosylation sites. Peptides containing two identical copies of the designed VNTR were synthesised at Genemed Synthesis Inc (San Francisco, Calif.). These peptides were then screened for their ability to bind to a number of anti-MUC1 monoclonal antibodies in an ELISA.
# (§2) Peptides were prepared as aqueous solutions in 50 mM sodium bicarbonate buffer pH9.6 and coated onto Nunc Maxisorp plates at 4° C. overnight at a range of concentrations between 50 μg/ml and 25 ng/ml. After extensive washing with TBS-Tween (Tris-buffered saline, pH7.4 containing 0.05% Tween20), the plates were blocked with blocking solution (3% w/v bovine serum albumin in TBS-Tween) for 2 hours at room temperature. Anti-MUC1 antibodies HMFG1 (Novocastra, Newcastle, UK), HMFG2 (Novocastra), SM3 (Girling et al, 1989, Int J Cancer 43:1072-1076) and ATR1 (Bynum et al, 1995, Hybridoma 14:587-591) were diluted in blocking solution, added to the plate and incubated at room temperature for one hour. After washing, bound antibody was labelled by incubation with HRP-conjugated anti-mouse IgG (P260, Dako, Denmark) at 1/2000 dilution in blocking buffer. The plate was washed again and bound conjugate detected using Fast OPD colour reagents (Sigma, Poole, UK). The reaction was stopped by the addition of 3M sulphuric acid, and the OPD product quantitated by measuring the absorbance at 490 nm.
# (§3) The ELISA signal for each antibody and peptide combination is ranked according to a semiquantitative scale, where +++ indicates strong binding, ++ indicates fair binding, + indicates weak binding, and − indicates no significant binding.
row,Substance,binding for the SM3 antibody (in words)
1,Ac-(PAHGVVAAPDIRPAPGAVAP)2-NH2 [Mut5I],maintain binding
2,Ac-(PAHGVVAAPDVRPAPGAVAP)2-NH2 [Mut5V],maintain binding

# Same assay, conditions: peptide coated 50 μg/ml to 25 ng/ml; semiquantitative scale; absorbance at 490 nm
row,Substance,"ELISA signal, Antibody SM3"
1,Ac-(PAHGVVAAPDARPAPGAVAP)2-NH2 [Mut5A],−
2,Ac-(PAHGVVAAPDIRPAPGAVAP)2-NH2 [Mut5I],+++
3,Ac-(PAHGVVAAPDNRPAPGAVAP)2-NH2 [Mut5N],−
4,Ac-(PAHGVVAAPDPRPAPGAVAP)2-NH2 [Mut5P],−
5,Ac-(PAHGVVAAPDTRPAPGAVAP)2-NH2 [Mut4],+++
6,Ac-(PAHGVVAAPDVRPAPGAVAP)2-NH2 [Mut5V],+++
7,Ac-(PAHGVVAAPDWRPAPGAVAP)2-NH2 [Mut5W],−

# Tested on: anti-MUC1 antibody HMFG1
# Assay: ELISA binding of anti-MUC1 antibody HMFG1 to synthetic MUC1 VNTR peptides
# Parameters: key: +++ indicates strong binding; ++ indicates fair binding; + indicates weak binding; − indicates no significant binding
# Settings: peptide coated 50 μg/ml to 25 ng/ml; semiquantitative scale; absorbance at 490 nm
# Text: as §1, §2, §3
row,Substance,"ELISA signal, Antibody HMFG1"
1,Ac-(PAHGVVAAPDARPAPGAVAP)2-NH2 [Mut5A],++
2,Ac-(PAHGVVAAPDIRPAPGAVAP)2-NH2 [Mut5I],++
3,Ac-(PAHGVVAAPDNRPAPGAVAP)2-NH2 [Mut5N],−
4,Ac-(PAHGVVAAPDPRPAPGAVAP)2-NH2 [Mut5P],+
5,Ac-(PAHGVVAAPDTRPAPGAVAP)2-NH2 [Mut4],++
6,Ac-(PAHGVVAAPDVRPAPGAVAP)2-NH2 [Mut5V],−
7,Ac-(PAHGVVAAPDWRPAPGAVAP)2-NH2 [Mut5W],−

# Tested on: anti-MUC1 antibody HMFG2
# Assay: ELISA binding of anti-MUC1 antibody HMFG2 to synthetic MUC1 VNTR peptides
# Parameters: key: +++ indicates strong binding; ++ indicates fair binding; + indicates weak binding; − indicates no significant binding
# Settings: peptide coated 50 μg/ml to 25 ng/ml; semiquantitative scale; absorbance at 490 nm
# Text: as §1, §2, §3
row,Substance,"ELISA signal, Antibody HMFG2"
1,Ac-(PAHGVVAAPDARPAPGAVAP)2-NH2 [Mut5A],−
2,Ac-(PAHGVVAAPDIRPAPGAVAP)2-NH2 [Mut5I],+++
3,Ac-(PAHGVVAAPDNRPAPGAVAP)2-NH2 [Mut5N],−
4,Ac-(PAHGVVAAPDPRPAPGAVAP)2-NH2 [Mut5P],−
5,Ac-(PAHGVVAAPDTRPAPGAVAP)2-NH2 [Mut4],+++
6,Ac-(PAHGVVAAPDVRPAPGAVAP)2-NH2 [Mut5V],+++
7,Ac-(PAHGVVAAPDWRPAPGAVAP)2-NH2 [Mut5W],−

# Tested on: anti-MUC1 antibody ATR1
# Assay: ELISA binding of anti-MUC1 antibody ATR1 to synthetic MUC1 VNTR peptides
# Parameters: key: +++ indicates strong binding; ++ indicates fair binding; + indicates weak binding; − indicates no significant binding
# Settings: peptide coated 50 μg/ml to 25 ng/ml; semiquantitative scale; absorbance at 490 nm
# Text: as §1, §2, §3
row,Substance,"ELISA signal, Antibody ATR1"
1,Ac-(PAHGVVAAPDARPAPGAVAP)2-NH2 [Mut5A],+++
2,Ac-(PAHGVVAAPDIRPAPGAVAP)2-NH2 [Mut5I],++
3,Ac-(PAHGVVAAPDNRPAPGAVAP)2-NH2 [Mut5N],+++
4,Ac-(PAHGVVAAPDPRPAPGAVAP)2-NH2 [Mut5P],+
5,Ac-(PAHGVVAAPDTRPAPGAVAP)2-NH2 [Mut4],+++
6,Ac-(PAHGVVAAPDVRPAPGAVAP)2-NH2 [Mut5V],+++
7,Ac-(PAHGVVAAPDWRPAPGAVAP)2-NH2 [Mut5W],++

# Tested on: antibody SM3
# Assay: Antibody binding curve for the mutant polypeptides (SM3 ELISA, FIG. 4)
# Settings: peptide coated at 3 ug/ml, different concentrations of SM3
# Protocol: as §2
# The polypeptides described in table 1 above were again used in this experiment. The methodology was essentially similar to Example 1 except that peptides were coated onto an ELISA plate at a fixed concentration of 3 ug/ml, and different concentrations of antibody SM3 were applied.
row,Substance,SM3 antibody binding pattern / affinity across a range of antibody concentrations
1,Ac-(PAHGVVAAPDARPAPGAVAP)2-NH2 [Mut5A],essentially the same as those shown for Mut5W
2,Ac-(PAHGVVAAPDIRPAPGAVAP)2-NH2 [Mut5I],does little to reduce the affinity
3,Ac-(PAHGVVAAPDNRPAPGAVAP)2-NH2 [Mut5N],substantially the same results as those shown for Mut5W; also recorded: essentially the same as those shown for Mut5W
4,Ac-(PAHGVVAAPDPRPAPGAVAP)2-NH2 [Mut5P],substantially the same results as those shown for Mut5W; also recorded: essentially the same as those shown for Mut5W
5,Ac-(PAHGVVAAPDVRPAPGAVAP)2-NH2 [Mut5V],does little to reduce the affinity

# Same assay, conditions: peptide coated at 3 ug/ml, different concentrations of SM3, listed as Mut 5A
row,Substance,SM3 antibody binding pattern / affinity across a range of antibody concentrations
1,Ac-(PAHGVVAAPDARPAPGAVAP)2-NH2 [Mut5A],substantially the same results as those shown for Mut5W
